Experimental data reported in ChEMBL document CHEMBL5465560, “Selectivity Literature for EUbOPEN Chemogenomic Library” (2024).

Tests used:
[1] = biological target: Rho-associated protein kinase 2 (Homo sapiens, UniProt O75116); assay: Selectivity interaction (KinomeScan (DiscoverX)) EUB0001049a ROCK2; details: at 1 µM
[2] = biological target: 5'-AMP-activated protein kinase catalytic subunit alpha-1 (Homo sapiens, UniProt Q13131); assay: Selectivity interaction (Kinase panel (literature)) EUB0001199aCl PRKAA1; details: at 1 µM
Sequence of 5'-AMP-activated protein kinase catalytic subunit alpha-1 (Q13131 whole entry, looked up): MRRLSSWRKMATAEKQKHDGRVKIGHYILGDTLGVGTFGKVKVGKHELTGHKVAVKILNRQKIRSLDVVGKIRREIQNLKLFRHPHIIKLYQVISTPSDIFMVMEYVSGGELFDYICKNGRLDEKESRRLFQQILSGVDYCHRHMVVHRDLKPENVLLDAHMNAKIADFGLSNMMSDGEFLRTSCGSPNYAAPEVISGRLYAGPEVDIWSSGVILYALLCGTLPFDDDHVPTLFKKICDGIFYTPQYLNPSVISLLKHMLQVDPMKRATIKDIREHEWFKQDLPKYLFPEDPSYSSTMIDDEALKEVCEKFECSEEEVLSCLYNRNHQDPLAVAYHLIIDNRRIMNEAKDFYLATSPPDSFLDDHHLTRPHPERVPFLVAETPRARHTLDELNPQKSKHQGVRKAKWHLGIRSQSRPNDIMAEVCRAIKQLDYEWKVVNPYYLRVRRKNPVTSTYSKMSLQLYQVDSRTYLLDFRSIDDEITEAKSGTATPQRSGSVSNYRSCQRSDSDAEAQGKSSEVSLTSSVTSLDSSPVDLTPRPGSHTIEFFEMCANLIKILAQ

[3] = biological target: T1, Serine/threonine-protein kinase ULK3 (Homo sapiens) (UniProt Q6PHR2); assay: Selectivity interaction (Kinase panel (KiNativ target engagement assay in Jurkat cells)) EUB0001635a ULK3; format: cell-based; details: at 1 µM
T1 sequence (whole entry): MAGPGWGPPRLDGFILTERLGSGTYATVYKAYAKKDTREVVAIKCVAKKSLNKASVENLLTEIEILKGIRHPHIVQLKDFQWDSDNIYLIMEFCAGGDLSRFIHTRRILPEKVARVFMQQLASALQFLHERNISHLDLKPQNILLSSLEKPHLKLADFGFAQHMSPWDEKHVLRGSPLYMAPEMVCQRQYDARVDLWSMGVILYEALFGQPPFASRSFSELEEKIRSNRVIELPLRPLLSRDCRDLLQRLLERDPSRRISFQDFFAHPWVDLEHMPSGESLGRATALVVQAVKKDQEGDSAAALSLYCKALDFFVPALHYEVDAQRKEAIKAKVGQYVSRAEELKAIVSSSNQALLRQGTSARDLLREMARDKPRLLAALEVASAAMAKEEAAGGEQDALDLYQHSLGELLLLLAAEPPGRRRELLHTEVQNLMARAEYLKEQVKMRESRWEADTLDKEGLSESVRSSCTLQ

[4] = biological target: T2, Dual specificity mitogen-activated protein kinase kinase 6 (Homo sapiens) (UniProt P52564); assay: Selectivity interaction (ActivX KiNativ screen (kinase selectivity in THP-1 cell lysates)) EUB0000639a MAP2K6; format: subcellular; details: lysate, at 0.2 µM
T2 sequence (whole entry): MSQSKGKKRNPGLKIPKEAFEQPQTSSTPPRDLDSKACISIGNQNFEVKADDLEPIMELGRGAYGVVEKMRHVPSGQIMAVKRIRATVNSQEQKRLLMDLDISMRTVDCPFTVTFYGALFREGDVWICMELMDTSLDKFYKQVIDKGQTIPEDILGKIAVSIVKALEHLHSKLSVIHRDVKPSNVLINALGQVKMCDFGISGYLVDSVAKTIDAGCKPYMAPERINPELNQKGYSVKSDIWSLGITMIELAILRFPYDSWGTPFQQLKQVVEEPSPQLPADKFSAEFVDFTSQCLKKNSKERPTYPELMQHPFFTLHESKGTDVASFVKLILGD

[5] = biological target: Serine/threonine-protein kinase PAK 2 (Homo sapiens) (UniProt Q13177); assay: Selectivity interaction (KinomeScan (DiscoverX)) EUB0000595a PAK2; details: at 10 µM
Sequence of Serine/threonine-protein kinase PAK 2 (Homo sapiens) (Q13177 whole entry): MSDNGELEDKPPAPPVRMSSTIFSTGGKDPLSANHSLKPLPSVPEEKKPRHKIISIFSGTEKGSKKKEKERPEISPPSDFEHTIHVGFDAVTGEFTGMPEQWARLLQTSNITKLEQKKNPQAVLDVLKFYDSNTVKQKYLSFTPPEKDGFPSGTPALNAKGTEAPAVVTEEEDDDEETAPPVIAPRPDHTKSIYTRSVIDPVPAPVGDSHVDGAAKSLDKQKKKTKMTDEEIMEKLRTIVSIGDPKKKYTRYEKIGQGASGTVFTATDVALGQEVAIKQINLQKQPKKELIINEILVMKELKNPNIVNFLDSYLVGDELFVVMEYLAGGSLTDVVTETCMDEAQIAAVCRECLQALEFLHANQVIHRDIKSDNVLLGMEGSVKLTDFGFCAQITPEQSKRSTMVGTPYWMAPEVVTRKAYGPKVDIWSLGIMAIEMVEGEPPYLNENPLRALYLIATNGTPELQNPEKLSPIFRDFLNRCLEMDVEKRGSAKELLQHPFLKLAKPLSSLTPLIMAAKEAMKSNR

[6] = biological target: Serine/threonine-protein kinase pim-1 (Homo sapiens, UniProt P11309); assay: Selectivity interaction (Upstate Kinase Profiler service (Millipore)) EUB0000056c PIM1; details: at 1 µM
Sequence of Serine/threonine-protein kinase pim-1 (P11309 whole entry, looked up): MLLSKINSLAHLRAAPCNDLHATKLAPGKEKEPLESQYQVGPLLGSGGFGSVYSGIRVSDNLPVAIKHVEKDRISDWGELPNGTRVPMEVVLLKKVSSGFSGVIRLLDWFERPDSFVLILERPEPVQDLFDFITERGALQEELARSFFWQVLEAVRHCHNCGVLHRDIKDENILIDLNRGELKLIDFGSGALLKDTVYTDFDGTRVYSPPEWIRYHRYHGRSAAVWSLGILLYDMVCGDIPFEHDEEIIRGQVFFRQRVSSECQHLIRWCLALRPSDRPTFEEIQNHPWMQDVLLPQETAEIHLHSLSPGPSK

[7] = biological target: T3, Homeodomain-interacting protein kinase 4 (Homo sapiens) (UniProt Q8NE63); assay: Selectivity interaction (KinomeScan (DiscoverX)) EUB0000695a HIPK4; details: at 100 nM
T3 sequence (whole entry): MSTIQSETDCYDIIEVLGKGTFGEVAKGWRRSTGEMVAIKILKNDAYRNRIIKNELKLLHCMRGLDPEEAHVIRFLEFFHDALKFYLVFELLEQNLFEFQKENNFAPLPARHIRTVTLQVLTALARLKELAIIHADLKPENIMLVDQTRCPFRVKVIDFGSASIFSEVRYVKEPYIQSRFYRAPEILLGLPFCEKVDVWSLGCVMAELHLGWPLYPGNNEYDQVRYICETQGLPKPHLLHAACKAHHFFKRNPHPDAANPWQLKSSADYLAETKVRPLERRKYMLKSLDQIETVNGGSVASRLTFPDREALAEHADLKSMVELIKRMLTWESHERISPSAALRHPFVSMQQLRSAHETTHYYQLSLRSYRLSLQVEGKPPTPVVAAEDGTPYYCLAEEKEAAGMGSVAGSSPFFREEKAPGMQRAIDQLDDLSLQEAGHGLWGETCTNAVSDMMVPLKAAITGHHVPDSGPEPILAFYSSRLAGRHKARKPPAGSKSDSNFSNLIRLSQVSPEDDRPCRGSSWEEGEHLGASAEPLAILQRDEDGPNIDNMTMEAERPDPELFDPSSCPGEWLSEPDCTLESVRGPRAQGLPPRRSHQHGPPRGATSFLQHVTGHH

[8] = biological target: Dual specificity tyrosine-phosphorylation-regulated kinase 1A (Homo sapiens, UniProt Q13627); assay: Selectivity interaction (KinomeScan (DiscoverX)) EUB0000607a DYRK1A; details: at 10 µM
[9] = biological target: T4, Dual specificity protein kinase TTK (Homo sapiens) (UniProt P33981); assay: Selectivity interaction (KinomeScan (DiscoverX)) EUB0000607a TTK; details: at 10 µM
T4 sequence (whole entry): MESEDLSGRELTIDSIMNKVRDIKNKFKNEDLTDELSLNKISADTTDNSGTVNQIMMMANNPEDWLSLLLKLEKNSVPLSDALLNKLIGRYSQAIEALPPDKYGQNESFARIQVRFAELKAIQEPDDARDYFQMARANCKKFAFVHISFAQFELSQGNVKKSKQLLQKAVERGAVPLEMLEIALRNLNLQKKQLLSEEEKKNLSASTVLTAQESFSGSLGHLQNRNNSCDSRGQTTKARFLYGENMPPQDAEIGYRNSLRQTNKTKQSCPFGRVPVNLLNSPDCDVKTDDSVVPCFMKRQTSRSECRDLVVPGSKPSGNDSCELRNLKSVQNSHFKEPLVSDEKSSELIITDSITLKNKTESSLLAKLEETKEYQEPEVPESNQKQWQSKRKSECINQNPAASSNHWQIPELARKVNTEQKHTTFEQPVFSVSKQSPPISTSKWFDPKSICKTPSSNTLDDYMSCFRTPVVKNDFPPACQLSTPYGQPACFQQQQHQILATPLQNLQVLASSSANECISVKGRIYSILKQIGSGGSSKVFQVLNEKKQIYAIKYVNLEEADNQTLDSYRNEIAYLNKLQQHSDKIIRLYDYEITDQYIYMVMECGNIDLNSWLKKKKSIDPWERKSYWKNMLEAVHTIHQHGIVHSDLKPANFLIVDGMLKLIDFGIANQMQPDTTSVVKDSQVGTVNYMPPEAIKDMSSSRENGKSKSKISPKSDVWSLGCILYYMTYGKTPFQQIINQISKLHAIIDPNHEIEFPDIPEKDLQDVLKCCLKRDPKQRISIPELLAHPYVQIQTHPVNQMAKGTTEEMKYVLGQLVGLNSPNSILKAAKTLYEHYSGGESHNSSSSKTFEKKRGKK

[10] = biological target: Mitogen-activated protein kinase kinase kinase 8 (Homo sapiens, UniProt P41279); assay: Selectivity interaction (ProQinase) EUB0000171b MAP3K8
Sequence of Mitogen-activated protein kinase kinase kinase 8 (P41279 whole entry): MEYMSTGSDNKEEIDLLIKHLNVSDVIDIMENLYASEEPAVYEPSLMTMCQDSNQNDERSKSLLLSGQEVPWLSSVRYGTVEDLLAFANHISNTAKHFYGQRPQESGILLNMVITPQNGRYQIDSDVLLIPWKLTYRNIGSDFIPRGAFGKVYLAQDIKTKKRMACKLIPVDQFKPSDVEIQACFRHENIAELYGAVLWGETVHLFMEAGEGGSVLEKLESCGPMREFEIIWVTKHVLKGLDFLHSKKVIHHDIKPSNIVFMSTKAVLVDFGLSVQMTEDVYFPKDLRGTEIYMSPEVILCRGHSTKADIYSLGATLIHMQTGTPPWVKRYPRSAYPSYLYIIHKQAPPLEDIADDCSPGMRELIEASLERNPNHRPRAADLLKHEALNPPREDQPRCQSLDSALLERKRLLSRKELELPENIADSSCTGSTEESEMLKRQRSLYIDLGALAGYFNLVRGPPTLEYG

Sequence of Rho-associated protein kinase 2 (O75116 whole entry, looked up): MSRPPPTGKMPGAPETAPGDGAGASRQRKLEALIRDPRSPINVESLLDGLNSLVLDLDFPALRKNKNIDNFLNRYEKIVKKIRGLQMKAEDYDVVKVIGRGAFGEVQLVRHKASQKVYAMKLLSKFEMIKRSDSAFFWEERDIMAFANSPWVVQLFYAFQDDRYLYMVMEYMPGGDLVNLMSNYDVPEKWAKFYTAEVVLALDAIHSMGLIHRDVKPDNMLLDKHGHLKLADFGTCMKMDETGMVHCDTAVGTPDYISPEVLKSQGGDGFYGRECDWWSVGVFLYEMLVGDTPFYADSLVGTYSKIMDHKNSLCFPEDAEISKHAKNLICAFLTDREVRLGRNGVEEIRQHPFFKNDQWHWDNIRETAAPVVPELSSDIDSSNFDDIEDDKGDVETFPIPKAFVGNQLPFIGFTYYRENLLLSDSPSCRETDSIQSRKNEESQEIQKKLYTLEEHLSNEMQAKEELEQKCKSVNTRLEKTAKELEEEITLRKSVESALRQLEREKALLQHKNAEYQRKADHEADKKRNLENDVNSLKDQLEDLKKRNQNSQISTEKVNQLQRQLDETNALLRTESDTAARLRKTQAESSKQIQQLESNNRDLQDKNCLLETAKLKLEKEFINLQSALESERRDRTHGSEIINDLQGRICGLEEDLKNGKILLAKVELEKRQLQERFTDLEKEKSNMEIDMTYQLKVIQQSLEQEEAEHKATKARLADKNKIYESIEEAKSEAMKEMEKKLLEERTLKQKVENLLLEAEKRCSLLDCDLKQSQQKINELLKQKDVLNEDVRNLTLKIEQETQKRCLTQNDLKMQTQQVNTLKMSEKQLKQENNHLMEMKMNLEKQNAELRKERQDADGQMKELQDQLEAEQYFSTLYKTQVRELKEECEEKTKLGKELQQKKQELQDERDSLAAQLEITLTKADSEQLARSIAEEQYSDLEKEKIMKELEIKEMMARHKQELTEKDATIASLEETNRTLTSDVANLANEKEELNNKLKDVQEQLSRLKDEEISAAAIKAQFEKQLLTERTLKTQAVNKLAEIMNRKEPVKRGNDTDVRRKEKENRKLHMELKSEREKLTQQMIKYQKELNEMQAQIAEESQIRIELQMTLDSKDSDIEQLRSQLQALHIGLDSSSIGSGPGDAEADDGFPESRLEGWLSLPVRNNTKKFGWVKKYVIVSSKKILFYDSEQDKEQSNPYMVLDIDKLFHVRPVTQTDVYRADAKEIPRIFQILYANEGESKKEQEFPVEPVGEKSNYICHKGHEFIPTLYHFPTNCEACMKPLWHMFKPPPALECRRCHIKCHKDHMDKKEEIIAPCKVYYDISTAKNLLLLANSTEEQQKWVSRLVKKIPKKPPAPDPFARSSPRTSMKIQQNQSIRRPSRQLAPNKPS

Which % of control [1] does the source give for `COc1cc(Nc2nc(C)cc(-c3cnn4nc(OC)ccc34)n2)cc(C(F)(F)F)c1` here?
Its % of control is 100%.

Which % of inhibition [2] does the source give for `CN1Cc2nccc(-c3cn(C)nc3-c3ccc(F)cc3)c2C1=O` here?
Its % of inhibition is 3%.

Which % of engagement ([3]; Selectivity number of off-targets 0.0, Selectivity number of targets 233.0, Source Knowledge https://www.sciencedirect.com/science/article/pii/S2451945619300674?via%3Dihub) does the source give for `C=CC(=O)Nc1ccc(C(=O)Nc2[nH]nc3c2CN(C(=O)N[C@H](CN(C)C)c2ccccc2)C3(C)C)cc1` here?
The % of engagement was -7.1%.

And the % of engagement [3]?
The % of engagement was -1.1%.

For `CC[C@@H]1[C@H](F)C(=O)N[C@@H]1COc1nccc2cc(C(N)=O)c(OC)cc12` [ZIMLOVISERTIB], which % of inhibition [4] is on record?
Its % of inhibition is 12.8%.

Which % of control [5] does the source give for `COCC(=O)NC/C=C/c1ccc2ncnc(Nc3ccc(Oc4ccc(C)nc4)c(C)c3)c2c1` [CP-724714] here?
The % of control was 87%.

How did the % of inhibition [6] turn out when `Cc1ccc(-c2ccc3c(ccc4sc5c(c43)NC[C@@H](C)NC5=O)n2)cn1` was run?
The % of inhibition was 89%.

Which % of control [7] does the source give for `Cc1cc(F)c(C(=O)Nc2cccc(-c3nncn3C(C)C)n2)cc1-n1cnc(C2CC2)c1` here?
Its % of control is 100%.

For `CNC(=O)Nc1ccc(-c2nc(N3CC4CCC(C3)O4)c3cnn(C4CCC5(CC4)OCCO5)c3n2)cc1`, which % of control [8] is on record?
Its % of control is 100%.

And the % of control [9]?
Its % of control is 100%.

With `C=CC(=O)Nc1cccc(C(=O)Nc2ccc(Nc3cc(-c4[nH]c(SC)nc4C)ccn3)cc2)c1` as the molecule, how does the % of control ([10]; at 1 µM) read?
The % of control was 95%.

And the % of control ([10]; at 5 µM)?
The % of control was 103%.
